Source: patent publication EP3349734B1, “USE OF SOLUBLE AND INSOLUBLE FRACTIONS OF A CYCLODEXTRIN POLYMER AND OF MIXTURES THEREOF AS AN EXCIPIENT IN A TABLET” (Université de Lille, priority 2015, dated 2017)

Columns and labels:
Type in all cases: physicochemical
[1] = Dissolution test of ibuprofène (Sotax USP 4, HCl pH = 1); details: in 45 minutes, 500 mL HCl pH = 1, 37°C, 50 mL/min
Source text: (§1) La dissolution de principes actifs à partir de comprimés selon l'invention, i.e. les comprimés formés à partir de fractions solubles de polymères de cyclodextrine, a été comparée à la dissolution de principes actifs à partir de comprimés formés à partir de cyclodextrines sous forme de monomères ainsi qu'à la dissolution du principe actif non compris dans une forme galénique.
(§2) La poudre contenant les cyclodextrines ou les fractions solubles de polymère de cyclodextrine et le principe actif a été obtenue par granulation humide comme détaillé dans l'exemple 4. Le ratio CD ou PolyCD / ibuprofène était de 90/10 et le ratio CD ou PolyCD / Piroxicam était de 60 / 40. Les essais de dissolution ont été réalisés dans un système Sotax® USP 4 (50 mL/min, 37°C) muni d'un détecteur UV. L'ibuprofène et le piroxicam ont été détectés à une longueur d'onde de 264 et 334 nm, respectivement.
(§3) Le milieu de dissolution est composé de 500 mL de HCl (pH = 1) dans le cas de l'ibuprofène, et de 500 mL de HCl (pH = 4) dans le cas du piroxicam. Des échantillons ont été prélevés toutes les 2 minutes pendant 1 h et analysés par un spectromètre UV-VIS (Perkin Elmer Lambda 25). Les courbes sont obtenues en pourcentage en divisant la quantité de principe actif libérée au cours du temps par la quantité de principe actif initiale.

[2] = Glass transition by DSC (Gordon-Taylor extrapolation of mannitol mixtures; quenched melt); details: after melt-quench at 210°C, heating 5°C/min
Description: Les expériences de calorimétrie ont été réalisées avec la DSC Q200 de chez TA Instruments. Les échantillons ont été placés dans des creusets en aluminium ouverts et balayés avec de l'azote gazeux pur. L'instrument a été étalonné en température et en enthalpie en utilisant l'indium comme standard. […]
La figure 12 montre les thermogrammes des mélanges poly-βCD / mannitol enregistrés au chauffage (5°C/min). Ils présentent tous un saut de chaleur spécifique (Cp) caractéristique d'une transition vitreuse. Ce saut est unique, ce qui indique que les mélanges sont dans un état physique amorphe homogène. La température de transition vitreuse Tg (prise au point d'inflexion du saut) diminue lorsque la concentration en mannitol augmente ce qui montre l'effet plastifiant du mannitol sur la poly-βCD. L'évolution du Tg du mélange ave la concentration en mannitol (X) suit une loi de Gordon Taylor dont l'extrapolation à X = 0 permet d'estimer le Tg de la poly-βCD pure. On trouve Tg # 400°C. La transition vitreuse de la poly-βCD se situe donc à très haute température et bien au-dessus de sa température de dégradation thermique. Elle ne peut donc pas être observée directement en DSC. Une étude analogue menée avec la poly-MebCD révèle un comportement identique et une transition vitreuse proche de Tg = 317°C. […]

[3] = Dissolution test of piroxicam (Sotax USP 4, HCl pH = 4); details: in 45 minutes; 500 mL HCl pH = 4, 37°C, 50 mL/min
Source text: as §1, §2, §3

[4] = Phase-solubility diagram of ibuprofène with cyclodextrins or soluble polymer fractions; details: calculated from slope and So of the solubility diagram
Description: (§4) Les diagrammes de solubilité de plusieurs principes actifs ont été effectués en présence de cyclodextrines et de fractions solubles de polymères de cyclodextrine mentionnés à l'exemple 1.
(§5) Des solutions de concentration croissante de cyclodextrines et fractions solubles de polymères de cyclodextrine ont été préparées dans de l'eau ultrapure [0-70 g/L]. 10 mL de chacune des solutions ont été mis en présence d'un excès du principe actif (20 mg) sous agitation pendant 24 heures à température ambiante. Les solutions ont ensuite été filtrées avec une membrane en cellulose et en Nylon (0,45 µm; VWR International, USA) respectivement pour l'Ibuprofène et le Piroxicam. L'ibuprofène a été dosé par HPLC (Shimadzu LC-2010 HT Liquid Chromatography), la phase mobile de l'ibuprofène est un mélange acétonitrile/eau (60:40) avec un pH de 2,25, une colonne C18 a été utilisée. Le piroxicam a été dosé par spectrophotométrie UV-Vis à 356 nm (UV 1800 Shimadzu).
(§6) La constante de stabilité (K1:1) est utilisée pour comparer l'affinité de principes actifs pour différentes cyclodextrines ou dérivés. La solubilité totale de médicament (St) en solution aqueuse de cyclodextrine sera : [formula]
(§7) So = solubilité intrinsèque du médicament; [CD]1 = concentration totale en cyclodextrine dans le milieu aqueux
(§8) Une parcelle de St rapport [CD] t, selon l'équation (1), donnera une ligne droite avec une pente (K 1:1 So / (1 + K 1:1 So)) et une interception (Sint) égale à So. K 1:1 est calculée à partir de la pente et So : [formula]
Afin de pouvoir faire une comparaison directe entre cyclodextrine monomère et cyclodextrine polymérisée, les diagrammes de solubilité sont présentés en fonction de la concentration rapportée en gramme de monomère de cyclodextrine par litre. Tableau 3 : Solubilité de l'ibuprofène et constantes de complexation en présence des cyclodextrines ou de fractions solubles de polymères de cyclodextrine à 10 et 50 g/L en cyclodextrine. L'utilisation de cyclodextrines sous forme de monomères ne tombe pas sous l'étendue de la protection revendiquée.

[5] = Phase-solubility diagram of piroxicam with cyclodextrins or soluble polymer fractions; details: calculated from slope and So of the solubility diagram
Description: as §4, §5, §6, §7, §8

Row | Constante de complexation K1:1 [4] [M⁻¹] | Molecule | also measured
1 | – | CC(C)Cc1ccc(C(C)C(=O)O)cc1 (stereo not shown) [ibuprofène, acide 2-[4-isobutylphényl]propanoique] | dissolution du principe actif [1]: 15%
2 | – | CN1C(C(=O)Nc2ccccn2)=C(O)c2ccccc2S1(=O)=O [piroxicam, 1,1-dioxydede 4-hydroxy-2-méthyl-N-(2-pyridinyl)-2H-1,2-benzothiazine-3-carboxamide] | Tg (saut de chaleur spécifique) [2]: 65 °C; libération du piroxicam [3]: 10%
3 | 1 | OC[C@H]1O[C@@H]2O[C@H]3[C@H](O)[C@@H](O)[C@@H](O[C@H]4[C@H](O)[C@@H](O)[C@@H](O[C@H]5[C@H](O)[C@@H](O)[C@@H](O[C@H]6[C@H](O)[C@@H](O)[C@@H](O[C@H]7[C@H](O)[C@@H](O)[C@@H](O[C@H]8[C@H](O)[C@@H](O)[C@@H](O[C@H]9[C@H](O)[C@@H](O)[C@@H](O[C@H]1[C@H](O)[C@H]2O)O[C@@H]9CO)O[C@@H]8CO)O[C@@H]7CO)O[C@@H]6CO)O[C@@H]5CO)O[C@@H]4CO)O[C@@H]3CO [γCD, γ-cyclodextrine] | Constante de complexation K1:1 [5]: 890 M⁻¹
4 | 17 | hydroxypropyl-β-cyclodextrine [HPβCD1] | –
5 | 45 | hydroxypropyl-β-cyclodextrine [HPβCD2] | Constante de complexation K1:1 [5]: 185 M⁻¹
6 | 11 | hydroxypropyl-γ-cyclodextrine [HPγCD] | –
7 | 33 | méthyl-β-cyclodextrine [MeβCD] | –
